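Cells were grown in 96-well plates and exposed to each compound for 48 hours at five concentrations; endpoints were interpolated linearly between bracketing concentrations, or set to the highest concentration if not reached. Abbreviation: GI50, concentration required for 50% inhibition of growth.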 The source made the active and inactive calls. Rule as the data show it: active = GI50 up to about 1.1 µM and inactive = higher.
Tests used:
Assay in all cases: NCI anticancer screen, dose series, 48 h
[1] = tested on: MOLT-4
[2] = tested on: UACC-257
[3] = tested on: NCI/ADR-RES
[4] = tested on: RXF 393
[5] = tested on: SK-MEL-5
[6] = tested on: SNB-19
[7] = tested on: MCF7
[8] = tested on: SK-OV-3
[9] = tested on: Hs-578T
[10] = tested on: HCT-116
[11] = tested on: EKVX
[12] = tested on: OVCAR-4
[13] = tested on: RPMI-8226
[14] = tested on: A549
[15] = tested on: UACC-62
[16] = tested on: T47D
[17] = tested on: KM12
[18] = tested on: BT-549
[19] = tested on: HL-60
[20] = tested on: IGROV-1

SMILES	GI50 [1]	GI50 [2]	GI50 [3]	GI50 [4]	GI50 [5]	GI50 [6]	GI50 [7]	GI50 [8]	GI50 [9]	GI50 [10]	GI50 [11]	GI50 [12]	GI50 [13]	GI50 [14]	GI50 [15]	GI50 [16]	GI50 [17]	GI50 [18]	GI50 [19]	GI50 [20]
COc1ccc(CC2NCCc3cc(OC)c(OC)cc32)cc1Br (centres undefined)	20.7 µM (inactive)	17.3 µM (inactive)	62.5 µM (inactive)	15.1 µM (inactive)	13 µM (inactive)	78.3 µM (inactive)	> 100 µM (inactive)	96.4 µM (inactive)	19.2 µM (inactive)	14.9 µM (inactive)	35.2 µM (inactive)	38 µM (inactive)	18.5 µM (inactive)	56 µM (inactive)	28.9 µM (inactive)	27.9 µM (inactive)	21.6 µM (inactive)	87.5 µM (inactive)	14 µM (inactive)	35 µM (inactive)
Nc1nc(F)nc2c1ncn2C1OC(COP(=O)(O)O)C(O)C1O (centres undefined)	4.38 µM (inactive)	146 µM (inactive)	4.11 µM (inactive)	51.4 µM (inactive)	56.4 µM (inactive)	25.1 µM (inactive)	78.3 µM (inactive)	26.9 µM (inactive)	81.5 µM (inactive)	33.1 µM (inactive)	45.9 µM (inactive)	212 µM (inactive)	80.4 µM (inactive)	40.7 µM (inactive)	56.2 µM (inactive)	78.7 µM (inactive)	266 µM (inactive)	56.2 µM (inactive)	5.4 µM (inactive)	286 µM (inactive)
CN(C)[C@H]1CC[C@H]2[C@@H]3CCC4C[C@@H](NC(=O)NC(Cc5ccccc5)c5nccs5)CC[C@]4(C)[C@H]3CC[C@]12C (some centres undefined)	0.566 µM (active)	1.87 µM (inactive)	1.77 µM (inactive)	1.54 µM (inactive)	0.789 µM (active)	1.79 µM (inactive)	0.703 µM (active)	1.67 µM (inactive)	2.19 µM (inactive)	0.955 µM (active)	1.96 µM (inactive)	1.72 µM (inactive)	0.792 µM (active)	1.58 µM (inactive)	1.92 µM (inactive)	1.76 µM (inactive)	1.12 µM (inactive)	1.79 µM (inactive)	0.218 µM (active)	1.87 µM (inactive)
CNC1C(=O)C(C)C(O)(C(CC(C)C(O)/C=C/C=C/CNC(=O)C(C)(C)C(O)\C(C)=C/C=C\C=C\Cc2cnc(C)o2)OC)C12C(=O)OC2C.CNC1C(=O)C(C)C(O)(C(CC(C)C(O)/C=C/C=C/CNC(=O)C(C)(C)C(O)\C(C)=C/C=C\C=C\Cc2cnc(C)o2)OC)C12C(=O)OC2COC (centres undefined)	8.85 µM (inactive)	0.188 µM (active)	15.9 µM (inactive)	17.3 µM (inactive)	0.191 µM (active)	19.9 µM (inactive)	0.354 µM (active)	19 µM (inactive)	12.4 µM (inactive)	15.1 µM (inactive)	0.292 µM (active)	0.345 µM (active)	0.711 µM (active)	0.78 µM (active)	13.3 µM (inactive)	0.202 µM (active)	7.01 µM (inactive)	25.1 µM (inactive)	0.635 µM (active)	0.931 µM (active)
NC(Cc1ccc2nc3c4ccccc4c(=O)cc-3oc2c1)C(=O)O (centres undefined)		72.1 µM (inactive)	> 100 µM (inactive)	> 100 µM (inactive)	18 µM (inactive)	> 100 µM (inactive)	18.4 µM (inactive)	> 100 µM (inactive)	56.1 µM (inactive)	> 100 µM (inactive)	> 100 µM (inactive)	> 100 µM (inactive)	> 100 µM (inactive)	44.2 µM (inactive)	32.7 µM (inactive)	> 100 µM (inactive)	> 100 µM (inactive)	> 100 µM (inactive)	> 100 µM (inactive)	> 100 µM (inactive)
COc1ccccc1/C(=N\OCCC(=O)O)c1cccs1	> 100 µM (inactive)	> 100 µM (inactive)	> 100 µM (inactive)	> 100 µM (inactive)	> 100 µM (inactive)	> 100 µM (inactive)	> 100 µM (inactive)	> 100 µM (inactive)	56.6 µM (inactive)	> 100 µM (inactive)	> 100 µM (inactive)	> 100 µM (inactive)	> 100 µM (inactive)	> 100 µM (inactive)	> 100 µM (inactive)	> 100 µM (inactive)	> 100 µM (inactive)	> 100 µM (inactive)	> 100 µM (inactive)	
O=C1OC(CN2CCN(c3ccccc3)CC2)CN1C(=S)Nc1ccccc1 (centres undefined)	> 100 µM (inactive)	> 100 µM (inactive)	> 100 µM (inactive)	> 100 µM (inactive)	> 100 µM (inactive)	> 100 µM (inactive)	> 100 µM (inactive)	> 100 µM (inactive)	> 100 µM (inactive)	> 100 µM (inactive)	> 100 µM (inactive)	> 100 µM (inactive)	92.5 µM (inactive)	> 100 µM (inactive)	> 100 µM (inactive)	> 100 µM (inactive)	88.3 µM (inactive)	> 100 µM (inactive)	> 100 µM (inactive)	> 100 µM (inactive)
COC(=O)C(=O)C(C(=O)C(=O)Nc1ccccc1C(=O)OC)c1nc2ccc(C(=O)c3ccccc3)cc2nc1O (centres undefined)		> 100 µM (inactive)	18.8 µM (inactive)	33.4 µM (inactive)	53.7 µM (inactive)		66.5 µM (inactive)	60.7 µM (inactive)	33.2 µM (inactive)	> 100 µM (inactive)	80.4 µM (inactive)	24.9 µM (inactive)	51.9 µM (inactive)	> 100 µM (inactive)	> 100 µM (inactive)	38.3 µM (inactive)	21.7 µM (inactive)	> 100 µM (inactive)	41 µM (inactive)	62.8 µM (inactive)
CCCCCCN(C(=O)Oc1ccccc1)C(C#N)c1ccccc1 (centres undefined)	> 100 µM (inactive)	> 100 µM (inactive)	> 100 µM (inactive)	> 100 µM (inactive)	> 100 µM (inactive)	> 100 µM (inactive)	> 100 µM (inactive)	> 100 µM (inactive)	> 100 µM (inactive)	> 100 µM (inactive)	> 100 µM (inactive)	> 100 µM (inactive)	> 100 µM (inactive)	> 100 µM (inactive)	> 100 µM (inactive)	> 100 µM (inactive)	> 100 µM (inactive)	> 100 µM (inactive)	> 100 µM (inactive)	> 100 µM (inactive)
CCn1cc(C(=O)O)c(=O)c2cc3c(cc21)S(=O)(=O)CC3	> 100 µM (inactive)	> 100 µM (inactive)	> 100 µM (inactive)	> 100 µM (inactive)	> 100 µM (inactive)	> 100 µM (inactive)	> 100 µM (inactive)	> 100 µM (inactive)	> 100 µM (inactive)	> 100 µM (inactive)	> 100 µM (inactive)	> 100 µM (inactive)	> 100 µM (inactive)	> 100 µM (inactive)	> 100 µM (inactive)	> 100 µM (inactive)	> 100 µM (inactive)	> 100 µM (inactive)	> 100 µM (inactive)	> 100 µM (inactive)
Cc1ccc(NC(=S)C#N)c(C)c1	28.8 µM (inactive)	63.2 µM (inactive)	75.7 µM (inactive)	> 100 µM (inactive)	51.9 µM (inactive)	> 100 µM (inactive)	> 69.5 µM (inactive)	> 100 µM (inactive)	> 100 µM (inactive)	> 78.7 µM (inactive)	> 93.5 µM (inactive)	> 64.1 µM (inactive)	21.3 µM (inactive)	> 100 µM (inactive)	97.3 µM (inactive)	46 µM (inactive)	> 82.8 µM (inactive)	54.1 µM (inactive)	20.5 µM (inactive)	> 63 µM (inactive)
O=C(CC(C(=O)c1ccco1)c1cccs1)c1cccs1 (centres undefined)		24.8 µM (inactive)	36.1 µM (inactive)	51.3 µM (inactive)	32.4 µM (inactive)	> 100 µM (inactive)	46.8 µM (inactive)	87.1 µM (inactive)	49.9 µM (inactive)	32.9 µM (inactive)	24.9 µM (inactive)	36 µM (inactive)	55.7 µM (inactive)	41.7 µM (inactive)	36.3 µM (inactive)	28.2 µM (inactive)	40.6 µM (inactive)	46.5 µM (inactive)	27.2 µM (inactive)	65.6 µM (inactive)
O=c1/c(=C/c2ccc([N+](=O)[O-])o2)sc2n1[C@@H](c1ccc3c(c1)OCO3)C=C(c1cc(F)c(Cl)cc1Cl)N=2	8.91 µM (inactive)	17.2 µM (inactive)	34.4 µM (inactive)	16.1 µM (inactive)	10.3 µM (inactive)	20.8 µM (inactive)	10 µM (inactive)	46.5 µM (inactive)	61 µM (inactive)	5.11 µM (inactive)	16.6 µM (inactive)	15.7 µM (inactive)	9.31 µM (inactive)	16.4 µM (inactive)	15.9 µM (inactive)	17.3 µM (inactive)	16.6 µM (inactive)	16.8 µM (inactive)	15.6 µM (inactive)	16.3 µM (inactive)
CN(C)CCNc1ccc2ncnc3c2c1C(=O)c1ccccc1-3	0.0769 µM (active)	2.09 µM (inactive)	0.357 µM (active)	0.444 µM (active)	0.759 µM (active)	1.02 µM (active)	0.406 µM (active)	1.81 µM (inactive)	0.989 µM (active)	0.0676 µM (active)	0.343 µM (active)	0.627 µM (active)	0.263 µM (active)	0.274 µM (active)	0.757 µM (active)	0.619 µM (active)	0.393 µM (active)	5.32 µM (inactive)	2.58 µM (inactive)	
